pEC50, pIC50: −log10 of the molar value.
How the values were obtained:
[1] = molecular target: T1, 5-HT4 receptor (Rattus norvegicus, UniProt Q62758); experiment: block of […] 5-HT-induced PKA-RII phosphorylation in rat DRG neurons; assay type: cell-based
[2] = molecular target: T1, 5-HT4 receptor; experiment: agonist-induced PKA-RII phosphorylation in rat DRG neurons, reduced by GR113808; assay type: cell-based

T1 sequence (Q62758 whole entry): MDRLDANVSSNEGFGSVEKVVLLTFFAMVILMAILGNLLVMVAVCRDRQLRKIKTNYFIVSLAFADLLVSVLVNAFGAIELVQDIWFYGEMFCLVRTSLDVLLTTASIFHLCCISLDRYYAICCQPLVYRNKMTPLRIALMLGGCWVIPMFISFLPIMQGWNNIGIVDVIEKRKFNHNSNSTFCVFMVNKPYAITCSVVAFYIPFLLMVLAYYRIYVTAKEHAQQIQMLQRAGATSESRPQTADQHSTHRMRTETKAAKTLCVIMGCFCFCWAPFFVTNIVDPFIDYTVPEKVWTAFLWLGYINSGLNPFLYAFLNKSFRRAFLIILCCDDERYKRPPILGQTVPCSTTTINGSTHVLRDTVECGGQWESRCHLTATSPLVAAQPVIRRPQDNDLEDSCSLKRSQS

pIC50 [1] | pEC50 [2] | Structure (SMILES)
8.26 | – | Cn1cc(C(=O)OCC2CCN(CCNS(C)(=O)=O)CC2)c2ccccc21 [GR, GR113808]
– | 7.99 | COCCCN1CCC(NC(=O)c2cc(Cl)c(N)c3c2OCC3)CC1 [Ppr, prucalopride]

Source: publication PMC7856035 (Neuropharmacology, 2020)
